Assay results: patent US9096598B2 (Merck Sharp & Dohme Corp., priority 2011, dated 2015)

Legend:
[1] = biological target: T1, JAK3 (Homo sapiens, UniProt P52333); assay: Jak Biochemical HTRF Assay (JAK3); conditions: recombinant purified GST-tagged catalytic domain, [ATP] 2.9 μM, values given as range classes
T1 construct: recombinant purified GST-tagged catalytic domain for each enzyme; purchased Invitrogen M4290
Outline: (§1)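 GST-tagged recombinant catalytic domain and biotinylated peptide substrate were preincubated with compound for 30 min at room temperature in kinase buffer with 2 mM DTT and 0.05% BSA. ATP then started a 120 min reaction. Phosphopeptide was detected by HTRF (Eu-pY20/streptavidin-Dylight 650, 665/615 nm ratio), and IC50 came from a 4-parameter fit of percent inhibition.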

[2] = biological target: T2, JAK2 (Homo sapiens, UniProt O60674); assay: Jak Biochemical HTRF Assay (JAK2); conditions: recombinant purified GST-tagged catalytic domain, [ATP] 8.5 μM, values given as range classes
T2 construct: recombinant purified GST-tagged catalytic domain for each enzyme; purchased Invitrogen M4290
T2 sequence (O60674 849-1124 limits assumed): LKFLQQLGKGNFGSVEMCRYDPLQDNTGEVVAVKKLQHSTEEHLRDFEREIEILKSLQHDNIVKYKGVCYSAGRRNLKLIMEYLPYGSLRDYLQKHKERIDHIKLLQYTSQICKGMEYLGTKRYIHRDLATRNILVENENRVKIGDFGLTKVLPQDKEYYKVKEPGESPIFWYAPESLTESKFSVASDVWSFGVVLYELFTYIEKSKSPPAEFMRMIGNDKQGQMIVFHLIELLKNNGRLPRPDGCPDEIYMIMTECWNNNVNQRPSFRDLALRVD
Outline: as §1

T1 sequence (P52333 822-1111 limits assumed): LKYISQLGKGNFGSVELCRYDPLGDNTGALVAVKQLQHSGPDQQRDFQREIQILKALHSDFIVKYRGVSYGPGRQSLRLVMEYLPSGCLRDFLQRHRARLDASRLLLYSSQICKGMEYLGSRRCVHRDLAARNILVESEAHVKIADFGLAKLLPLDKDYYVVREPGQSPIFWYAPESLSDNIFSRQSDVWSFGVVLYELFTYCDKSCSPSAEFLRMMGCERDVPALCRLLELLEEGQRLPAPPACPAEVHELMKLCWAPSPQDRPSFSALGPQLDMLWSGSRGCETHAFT

Row | SMILES | IC50 [1] | IC50 [2]
1 | CC(CO)NC(=O)c1cnc2[nH]cc(-c3cncc(N[C@@H](C(=O)NCC(F)(F)F)C(C)C)c3)c2c1 (stereo partly drawn) [Example 3-4, N-(2-hydroxy-1-methylethyl)-3-[5-({(1R)-2-methyl-1-[(2,2,2-trifluoroethyl)carbamoyl]propyl}amino)pyridin-3-yl]-1H-pyrrolo[2,3-b]pyridine-5-carboxamide] | ≤ 10 nM | ≤ 10 nM
2 | CC(C)[C@@H](Nc1cncc(-c2c[nH]c3ncc(C(=O)NC4CCOCC4)cc23)c1)C(=O)NCC(F)(F)F [Example 3-5, 3-[5-({(1R)-2-methyl-1-[(2,2,2-trifluoroethyl)carbamoyl]propyl}amino)pyridin-3-yl]-N-(tetrahydro-2H-pyran-4-yl)-1H-pyrrolo[2,3-b]pyridine-5-carboxamide] | ≤ 10 nM | ≤ 10 nM
3 | CC(C)[C@@H](Nc1cncc(-c2c[nH]c3ncc(C(=O)N4CCC4)cc23)c1)C(=O)NCC(F)(F)F [Example 3-6, N~2~-{5-[5-(azetidin-1-ylcarbonyl)-1H-pyrrolo[2,3-b]pyridin-3-yl]pyridin-3-yl}-N-(2,2,2-trifluoroethyl)-D-valinamide] | ≤ 10 nM | 10 to 500 nM
4 | CC(C)CNC(=O)c1cnc2[nH]cc(-c3cncc(N[C@@H](C(=O)NCC(F)(F)F)C(C)C)c3)c2c1 [Example 3-7, N-(2-methylpropyl)-3-[5-({(1R)-2-methyl-1-[(2,2,2-trifluoroethyl)carbamoyl]propyl}amino)pyridin-3-yl]-1H-pyrrolo[2,3-b]pyridine-5-carboxamide] | ≤ 10 nM | 10 to 500 nM
5 | CNC(=O)c1cnc2[nH]cc(-c3cncc(N[C@@H](C(=O)NCC(F)(F)F)C(C)C)c3)c2c1 [Example 3-8, N-methyl-3-[5-({(1R)-2-methyl-1-[(2,2,2-trifluoroethyl)carbamoyl]propyl}amino)pyridin-3-yl]-1H-pyrrolo[2,3-b]pyridine-5-carboxamide] | ≤ 10 nM | 10 to 500 nM
6 | CC(C)[C@@H](Nc1cncc(-c2c[nH]c3ncc(C(=O)NCC4CCS(=O)(=O)C4)cc23)c1)C(=O)NCC(F)(F)F (stereo partly drawn) [Example 3-9, N-[(1,1-dioxidotetrahydrothiophen-3-yl)methyl]-3-[5-({(1R)-2-methyl-1-[(2,2,2-trifluoroethyl)carbamoyl]propyl}amino)pyridin-3-yl]-1H-pyrrolo[2,3-b]pyridine-5-carboxamide] | ≤ 10 nM | 10 to 500 nM
7 | CC(C)[C@@H](Nc1cncc(-c2c[nH]c3ncc(C(=O)NCc4ccn[nH]4)cc23)c1)C(=O)NCC(F)(F)F [Example 3-10, 3-[5-({(1R)-2-methyl-1-[(2,2,2-trifluoroethyl)carbamoyl]propyl}amino)pyridin-3-yl]-N-(1H-pyrazol-5-ylmethyl)-1H-pyrrolo[2,3-b]pyridine-5-carboxamide] | ≤ 10 nM | 10 to 500 nM
8 | CC(C)[C@@H](Nc1cncc(-c2c[nH]c3ncc(C(=O)N(C)C(C)c4ccn[nH]4)cc23)c1)C(=O)NCC(F)(F)F (stereo partly drawn) [Example 3-11, N-methyl-3-[5-({(1R)-2-methyl-1-[(2,2,2-trifluoroethyl)carbamoyl]propyl}amino)pyridin-3-yl]-N-[1-(1H-pyrazol-5-yl)ethyl]-1H-pyrrolo[23-b]pyridine-5-carboxamide] | 10 to 500 nM | > 500 nM
9 | CC(C)[C@@H](Nc1cncc(-c2c[nH]c3ncc(C(=O)NCc4cnn(C)c4)cc23)c1)C(=O)NCC(F)(F)F [Example 3-12, N-[(1-methyl-1H-pyrazol-4-yl)methyl]-3-[5-({(1R)-2-methyl-1-[(2,2,2-trifluoroethyl)carbamoyl]propyl}amino)pyridin-3-yl]-1H-pyrrolo[2,3-b]pyridine-5-carboxamide] | ≤ 10 nM | ≤ 10 nM
10 | CC(C)[C@@H](Nc1cncc(-c2c[nH]c3ncc(C(=O)N4CCC(O)CC4)cc23)c1)C(=O)NCC(F)(F)F [Example 3-13, N~2~-(5-{5-[(4-hydroxypiperidin-1-yl)carbonyl]-1H-pyrrolo[2,3-b]pyridin-3-yl}pyridin-3-yl)-N-(2,2,2-trifluoroethyl)-D-valinamide] | 10 to 500 nM | > 500 nM
11 | CC(C)[C@@H](Nc1cncc(-c2c[nH]c3ncc(C(=O)NCC4(O)CC4)cc23)c1)C(=O)NCC(F)(F)F [Example 3-14, N-[(1-hydroxycyclopropyl)methyl]-3-[5-({(1R)-2-methyl-1-[(2,2,2-trifluoroethyl)carbamoyl]propyl}amino)pyridin-3-yl]-1H-pyrrolo[2,3-b]pyridine-5-carboxamide] | ≤ 10 nM | ≤ 10 nM
12 | CC(C)C(Nc1cncc(-c2c[nH]c3ncc(S(N)(=O)=O)cc23)c1)C(=O)NCC(F)(F)F (centres unmarked) [Example 4-1, 3-Methyl-2-(5-(5-sulfamoyl-1H-pyrrolo[2,3-b]pyridin-3-yl)pyridin-3-ylamino)-N-(2,2,2-trifluoroethyl)butanamide] | ≤ 10 nM | 10 to 500 nM
13 | CC(C)C(Nc1cncc(-c2c[nH]c3ncc(S(=O)(=O)N(C)C)cc23)c1)C(=O)NCC(F)(F)F (centres unmarked) [Example 4-2, 2-(5-(5-(N,N-dimethylsulfamoyl)-1H-pyrrolo[2,3-b]pyridin-3-yl)pyridin-3-ylamino)-3-methyl-N-(2,2,2-trifluoroethyl)butanamide] | 10 to 500 nM | > 500 nM

The next lines start with the values.

Row | IC50 [1] | IC50 [2] | SMILES
14 | 10 to 500 nM | 10 to 500 nM | CC(C)[C@H](Nc1cncc(-c2c[nH]c3ncc(N)cc23)c1)C(=O)NCC(F)(F)F [Example 5-1, N^2-[5-(5-amino-1H-pyrrolo[2,3-b]pyridin-3-yl)pyridin-3-yl]-N-(2,2,2-trifluoroethyl)valinamide]
15 | ≤ 10 nM | 10 to 500 nM | CC(=O)Nc1cnc2[nH]cc(-c3cncc(N[C@H](C(=O)NCC(F)(F)F)C(C)C)c3)c2c1 [Example 5-2, N^2-{5-[5-(acetylamino)-1H-pyrrolo[2,3-b]pyridin-3-yl]pyridin-3-yl}-N-(2,2,2-trifluoroethyl)valinamide]
16 | 10 to 500 nM | > 500 nM | CC(C)[C@H](Nc1cncc(-c2c[nH]c3ncc(NS(C)(=O)=O)cc23)c1)C(=O)NCC(F)(F)F [Example 5-4, N^2-(5-{5-[(methylsulfonyl)amino]-1H-pyrrolo[2,3-b]pyridin-3-yl}pyridin-3-yl)-N-(2,2,2-trifluoroethyl)-L-valinamide]
17 | 10 to 500 nM | 10 to 500 nM | CC(C)[C@@H](Nc1cncc(-c2c[nH]c3ncc(NS(C)(=O)=O)cc23)c1)C(=O)NCC(F)(F)F [Example 5-5, N^2-(5-{5-[(methylsulfonyl)amino]-1H-pyrrolo[2,3-b]pyridin-3-yl}pyridin-3-yl)-N-(2,2,2-trifluoroethyl)-D-valinamide]
18 | ≤ 10 nM | 10 to 500 nM | CCC(=O)Nc1cnc2[nH]cc(-c3cncc(NC(C(=O)NCC(F)(F)F)C(C)C)c3)c2c1 (centres unmarked) [Example 5-6, N^2-{5-[5-(propanoylamino)-1H-pyrrolo[2,3-b]pyridin-7-ium-3-yl]pyridin-3-yl}-N-(2,2,2-trifluoroethyl)valinamide]
19 | ≤ 10 nM | 10 to 500 nM | CC(C)[C@H](Nc1cncc(-c2c[nH]c3ncc(NC(=O)CO)cc23)c1)C(=O)NCC(F)(F)F [Example 5-7, N~2~-(5-{5-[(hydroxyacetyl)amino]-1H-pyrrolo[2,3-b]pyridin-3-yl}pyridin-3-yl)-N-(2,2,2-trifluoroethyl)valinamide]
